In one assay the target is PRMT1 (Homo sapiens, UniProt Q99873). Briefly: PRMT1 enzyme activity test. In kind it is biochemical. The conditions noted are these: 0.5 nM PRMT1, 3H-SAM, peptide. Summed up:
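Radiometric methylation assay: 0.5 nM PRMT1 preincubated 15 min at room temperature with compound (10-point 3-fold series, 1% DMSO) in pH 8.0 Tris buffer with Tween-20 and DTT. 0.25 uM ³H-SAM and 0.1 uM biotinylated peptide then reacted 120 min. Product captured on streptavidin FlashPlate and counted; IC50 from four-parameter fit of % inhibition.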

In a further assay the test system is MV-4-11 cells. Briefly: MV-4-11 cell proliferation inhibition assay. In kind it is cell-based. As to conditions: Homo sapiens, MV4-11, 144 h; six-day assay, CellTiter-Glo. How it is done:
• A. Purpose: to determine the effects of compounds on Toledo cells through a six-day cell proliferation assay. • B. Reagents and materials: • 1. Cell culture medium: RPMI 1640+10% FBS • 2. 384-well cell culture plate (Corning, item #3764) • 3. 0.4% Taipan Blue Staining Solution (Thermo Fisher, item #T10282) • 4. cell counting plate (Thermo Fisher, item #C10228) • 5. 50 ml reagent reservoir (Corning, item #4870) • 6. 50 ml conical sterile polypropylene centrifuge tube (Thermo Fisher, item #339653) • 7. Automatic cell counter (Thermo Fisher, item #AMQAX1000) • 8. CellTiter-Glo Luminescent Cell Viability Detection Reagent (Promega, item #G7572) • 9. SpectraMax i3x Multi-Mode Enzyme Labeling Instrument (Megaman Molecular Instruments, item #5024062) • C. Experimental method • 1. Resuspending the cells with a pipette. • 2. 0.4% Taipan blue staining solution and Toledo cells were mixed in equal proportion, and the cells were counted using an automatic cell counter. • 3. Toledo cells were diluted to a final concentration of 2000 cells per well and transferred to a 50 ml reagent reservoir. • 4. Diluted Toledo cells were added to a 384-well cell culture plate, 40 ul per well. • 5. The cells were shortly centrifuged and settled. • 6. The cells were incubated in a 37° C., 5% CO2 cell culture incubator. • 7. The substrate in the CellTiter-Glo Luminescent Cell Viability Detection Reagent was mixed with the solution. • 8. After six days, the 384-well cell culture plate was taken from the incubator and 20 ul of configured CellTiter-Glo reagent was added to each well. • 9. 384-well cell culture platewasmixed in an orbital shaker for 30 minutes. • 10. Signal of luminescence was detected with a SpectraMax i3x multi-mode enzyme labeling instrument.
Similar to the Toledo cell proliferation inhibition assay method, the difference was that MV-4-11 cells were used and the cell culture medium was IMDM+10% FBS; in step 3 of the assay method 250 cells per well was used instead;

Drawing on US20240307409A1, “ARGININE METHYLTRANSFERASE INHIBITOR AND USE THEREOF” (Cytosinlab Therapeutics Co., Ltd., priority 2021, published 2024), this text covers IC50 for 19 compounds.

Bounds are passed on as bounds.

Usually IC50 stands for the point on the concentration scale where inhibition reaches its midpoint. Read a high IC50 as a need for much substance.

Sequence of PRMT1 (Q99873 whole entry): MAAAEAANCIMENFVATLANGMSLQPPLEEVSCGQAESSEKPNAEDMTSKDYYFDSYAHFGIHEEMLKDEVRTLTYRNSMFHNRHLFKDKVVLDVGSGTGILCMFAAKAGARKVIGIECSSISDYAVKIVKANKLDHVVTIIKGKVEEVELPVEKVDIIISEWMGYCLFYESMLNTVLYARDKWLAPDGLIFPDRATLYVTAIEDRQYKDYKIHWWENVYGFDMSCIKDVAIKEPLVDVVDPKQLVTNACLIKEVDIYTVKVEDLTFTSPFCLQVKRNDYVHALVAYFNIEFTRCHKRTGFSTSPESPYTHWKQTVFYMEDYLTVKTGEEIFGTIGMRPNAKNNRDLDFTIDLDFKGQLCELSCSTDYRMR

As to `CNCCN(C)Cc1ccc2nn(C)cc2c1C1CCN(c2cccc(C)c2)CC1` [P401], the results for the half-inhibitory concentration (IC50) on PRMT1 and with MV-4-11 cells were under 0.05 µM and under 1 µM, respectively.

Take `CNCCN(C)Cc1ccc2c(c1C1CCN(c3cccc(C)c3)CC1)C(C)(C)C(=O)N2` [P402]: the IC50 on PRMT1 was 0.05 to 0.5 µM; in the assay on MV-4-11 cells it was 1 to 5 µM.

For the compound `CNCCN(C)Cc1ccc2c(c1C1CCN(c3cccc(C)c3)CC1)C(=O)C(=O)N2Cc1ccc(OC)cc1` [P404], the half-inhibitory concentration (IC50) against PRMT1 was 0.05 to 0.5 µM; in the assay with MV-4-11 cells it was under 1 µM.

Take `CNCCN(C)Cc1ccc2c(c1C1CCN(c3cccc(C)c3)CC1)C(=O)C(=O)N2` [P405]: the IC50 was under 0.05 µM on PRMT1 and under 1 µM with MV-4-11 cells.

As to `CNCCN(C)Cc1ccc2[nH]c(N3CCOCC3)nc2c1C1CCN(c2cccc(C)c2)CC1` [P406, N,N′-dimethyl-N′-[[2-morpholin-4-[1-(m-tolyl)-4-piperidinyl]-1H-benzo[d]imidazol-5-yl]methyl]ethane-1,2-diamine], the IC50 at PRMT1 was under 0.05 µM; with MV-4-11 cells, under 1 µM.

For `CNCCN(C)Cc1ccc2[nH]c(C(=O)c3ccccc3)nc2c1C1CCN(c2cccc(C)c2)CC1` [P407], the values for the IC50 against PRMT1 and in the assay on MV-4-11 cells were 0.05 to 0.5 µM and under 1 µM, respectively.

As for `CNCCN(C)Cc1cnc2[nH]ncc2c1C1CCN(c2cccc(C)c2)CC1` [P409], the IC50 is 0.05 to 0.5 µM at PRMT1 and under 1 µM in the assay on MV-4-11 cells.

In turn, `CNCCN(C)Cc1ccc2[nH]c(N3CCOCC3)nc2c1C1CCc2cc(F)c(F)cc2CC1` [P420] displayed an IC50 in the assay on MV-4-11 cells of under 1 µM.

In turn, `CNCCN(C)Cc1ccc2[nH]c(C3=CCOCC3)nc2c1C1CCN(c2cccc(C)c2)CC1` [P422] showed a half-maximal inhibitory concentration (IC50) with MV-4-11 cells of under 1 µM.

In the assay on MV-4-11 cells, `CNCCN(C)Cc1ccc2[nH]c(N3CCN(C)CC3)nc2c1C1CCN(c2cccc(C)c2)CC1` [P423] came in with an IC50 of under 1 µM.

In the assay on MV-4-11 cells, `CNCCN(C)Cc1ccc2[nH]c(N3CCCCC3)nc2c1C1CCN(c2cccc(C)c2)CC1` [P424] displayed an IC50 of under 1 µM.

As to `Cc1cccc(N2CCC(c3c(CN(C)CCN)ccc4[nH]c(N5CCOCC5)nc34)CC2)c1` [P425], the IC50 in the assay on MV-4-11 cells was under 1 µM.

For the compound `CCN(CCNC)Cc1ccc2[nH]c(N3CCOCC3)nc2c1C1CCN(c2cccc(C)c2)CC1` [P426], in the assay with MV-4-11 cells, the IC50 was under 1 µM.

In the assay with MV-4-11 cells, `CNCCN(C)Cc1ccc2[nH]c(N3CCOCC3)nc2c1C1CCN(c2cccc(C)n2)CC1` [P428] displayed an IC50 of under 1 µM.

In the assay on MV-4-11 cells, `CNCCN(C)Cc1ccc2[nH]c(N3CCOCC3)nc2c1C1CCN(c2cncc(F)c2)CC1` [P429] displayed an IC50 of under 1 µM.

`CNCCN(C)Cc1ccc2[nH]c(N3CCNCC3)nc2c1C1CCN(c2cccc(C)c2)CC1` [P440] gave a 50% inhibitory concentration (IC50) in the assay with MV-4-11 cells of under 1 µM.

As to `CNCCN(C)Cc1ccc2[nH]c(N3CCN(C(=O)CCCC(=O)N4CCN(c5nc6c(C7CCN(c8cccc(C)c8)CC7)c(CN(C)CCNC)ccc6[nH]5)CC4)CC3)nc2c1C1CCN(c2cccc(C)c2)CC1` [P442], the half-maximal inhibitory concentration (IC50) in the assay with MV-4-11 cells was under 1 µM.

Compound `CNCCN(C)Cc1ccc2[nH]c(C3=CCN(C)CC3)nc2c1C1CCN(c2cccc(C)c2)CC1` [P447] came in with an IC50 in the assay with MV-4-11 cells of under 1 µM.

For `CNCCN(C)Cc1ccc2[nH]c(C3CCN(C)CC3)nc2c1C1CCN(c2cccc(C)c2)CC1` [P448], in the assay on MV-4-11 cells, the IC50 was under 1 µM.
